Tests used:
Type in all cases: biochemical
S1P1 = target: T1, S1P1 (Homo sapiens, UniProt P21453); test: GTPγS binding assay, S1P1; conditions: CHO cells expressing S1P1
T1 construct: expressed in transfected cells
From the text: (§1) Human S1P1 (GenBank™ accession number M31210) and S1P3 (GenBank™ accession number X83864) cDNA containing the myc sequence in front to the human S1P1 and S1P3 sequences are inserted in the pcDNA 3.1 vector. The vectors are sequenced to completion to confirm the correctness of the construct. The human S1P2 (GI: 4090955, TREMBL: 0195136) is cloned by a PCR based method. Lung cDNA (marathon cDNA) is obtained (BD Biosciences Chontech, Palo Alto, Calif. 94303, USA). Following oligonucleotides are used for the PCR reaction: forward primer CACCATGGGCAGCTTGTACTCGGAGTACCT GM CCC CAA CM GGT CCA G (1 to 45, GenBank™ accession number AF034780) and reverse primer 5′-GATTCAGACCACCGTGTTGCCCTCCAG (1062 to 1039, GenBank™ accession number AF034780), the initiation of the translation (ATG) and the stop codon are underlined. […] The amplified product of around 1100 bp is analyzed by standard agarose gel-electrophoresis. […]
(§2) Membrane proteins are prepared from wild type CHO-K1 and the CHO cell clones expressing human S1P4. […] The protein concentration is determined using the Bio Rad Protein Assay and human IgG as standard. […]

S1P2 = target: T2, S1P2 (Homo sapiens, UniProt O95136); test: GTPγS binding assay, S1P2; conditions: CHO cells expressing S1P2
T2 construct: expressed in transfected cells
From the text: as §1, §2

CHO = test: GTPγS binding assay, membranes of wild type CHO cells
Protocol: Membrane proteins are prepared from wild type CHO-K1 and the CHO cell clones expressing human S1P4. To obtain 10-30 mg of membrane proteins, cells are grown in one large culture dish (500 cm^2) per cell clone to 80 and 90% confluence. The culture medium is removed and the cells are harvested on ice from the dish, by scraping in 20 ml cold HEPES 10 mM (pH 7.5) supplemented with 0.1% fatty acid-free bovine serum albumin (BSA) and protease inhibitors cocktail (one tablet per 50 ml, Roche Diagnostics, Rotkreuz). […] The protein concentration is determined using the Bio Rad Protein Assay and human IgG as standard. […]
The selection of the clones to be tested in the GTPγS assay is based on the real time PCR assays. […] The plates are then centrifuged for 10 minutes at 2000 rpm and counted with a TopCount instrument (Packard). […]
The compounds mentioned in this application are tested for specificity, e.g. the activity they have in the parental cell line prior transformation with the S1P4 cDNA and for selectivity on CHO cells lines transformed with the S1P1, S1P2, S1P3, and S1P5. […] For example, S1P4 specific and selective compounds may have an EC50 (apparent EC50) measured at S1P4 that is 10×, preferably 100× lower that that measured in wild type CHO cells or In cell expressing any of the other four S1P receptors.

Measured: EC50

T2 sequence (O95136 whole entry): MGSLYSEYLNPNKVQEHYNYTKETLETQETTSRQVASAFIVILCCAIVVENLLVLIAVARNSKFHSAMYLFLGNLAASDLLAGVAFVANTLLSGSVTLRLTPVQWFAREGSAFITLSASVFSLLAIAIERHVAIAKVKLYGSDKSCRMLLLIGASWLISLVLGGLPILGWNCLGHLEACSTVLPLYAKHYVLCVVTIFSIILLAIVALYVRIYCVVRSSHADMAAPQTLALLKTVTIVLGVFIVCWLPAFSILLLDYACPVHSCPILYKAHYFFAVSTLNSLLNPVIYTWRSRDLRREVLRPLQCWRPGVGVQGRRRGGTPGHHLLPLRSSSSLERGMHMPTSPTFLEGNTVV
T1 sequence (P21453 whole entry): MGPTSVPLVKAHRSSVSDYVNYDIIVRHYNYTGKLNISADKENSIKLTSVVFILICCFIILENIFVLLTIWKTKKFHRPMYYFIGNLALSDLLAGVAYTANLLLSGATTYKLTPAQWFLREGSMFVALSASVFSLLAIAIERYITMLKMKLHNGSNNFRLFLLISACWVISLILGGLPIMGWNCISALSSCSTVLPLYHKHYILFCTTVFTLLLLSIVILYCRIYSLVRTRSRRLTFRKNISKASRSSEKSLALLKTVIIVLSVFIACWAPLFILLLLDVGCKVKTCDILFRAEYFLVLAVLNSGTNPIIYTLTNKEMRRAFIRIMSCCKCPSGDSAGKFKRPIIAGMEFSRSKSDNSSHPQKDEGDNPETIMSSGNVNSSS

NC(CNC(=O)c1cc2c(-c3ccccc3Cc3ccccc3)cccc2[nH]1)C(=O)O (stereo not drawn) [Example 2]
> 10 µM: all assays above
